The values that follow come from PubChem BioAssay AID489016 (The Scripps Research Institute Molecular Screening Center, 2010).

The test has as its system P. falciparum 3D7 in RBCs, 3H-hypoxanthine incorporation, 48 h. Kind of test: antimalarial potency in infected red cells – cell-based, radiolabel, RBCs, powder sample, late stage, M17LAP inhibitor project, dose response (AID 489016).

A word on the IC50: it is the concentration at which inhibition is half-maximal. As to `CCCCOc1ccc(CC(=O)NO)cc1`, the IC50 is 1700 nM.
